Calls of active or inactive are those of the source. The rule behind the calls is not given here.
Key:
Type in all cases: cell-based
Vitamin D3 receptor = target: T1, Vitamin D3 receptor (Homo sapiens, UniProt P11473); assay: Inhibition of human recombinant GAL4N-fused VDR LBD expressed in HEK293 cells using 1,25(OH)2D3 as substrate assessed as inhibition of cofactor interaction after 16 to 18 hrs by luciferase reporter gene assay
T1 sequence (P11473 whole entry): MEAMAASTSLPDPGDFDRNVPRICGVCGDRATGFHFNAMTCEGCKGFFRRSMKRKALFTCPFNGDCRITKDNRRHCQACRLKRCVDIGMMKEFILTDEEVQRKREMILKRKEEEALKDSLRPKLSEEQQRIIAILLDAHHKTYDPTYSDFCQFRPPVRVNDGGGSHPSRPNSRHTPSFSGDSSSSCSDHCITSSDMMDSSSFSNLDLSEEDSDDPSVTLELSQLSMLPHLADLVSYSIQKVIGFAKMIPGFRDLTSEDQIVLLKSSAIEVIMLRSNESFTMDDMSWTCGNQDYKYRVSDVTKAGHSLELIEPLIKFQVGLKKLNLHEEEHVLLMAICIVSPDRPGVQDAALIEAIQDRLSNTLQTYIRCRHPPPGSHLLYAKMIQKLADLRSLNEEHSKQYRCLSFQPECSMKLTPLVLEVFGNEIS

[1] = target: T2, Vitamin D3 receptor (Homo sapiens) (UniProt P11473); assay: Inhibition of human recombinant GAL4N-fused VDR LBD expressed in HEK293 cells using 1,25(OH)2D3 as substrate assessed as inhibition of cofactor interaction at 30 uM after 16 to 18 hrs by luciferase reporter gene assay relative to control
T2 sequence (whole entry): T1 sequence (P11473 whole entry)

HEK293 = assay: Cytotoxicity to human HEK293 cells at 30 uM after 16 to 18 hrs; conditions: hek293, 30 µM

Row | SMILES | IC50 (Vitamin D3 receptor) | inhibition [1] | Activity (HEK293)
1 | CC(C)CCN1Cc2cc(I)c(N)cc2N[C@@H](CC(C)C)C1=O | 30 µM | – | –
2 | CC(C)CCN1Cc2cc(CCCCO)ccc2N[C@@H](CC(C)C)C1=O | – | inactive | –
3 | CC(C)CCN1Cc2ccc(N)cc2N[C@@H](CC(C)C)C1=O | > 30 µM | 7% | –
4 | CC(C)CCN1Cc2cc(-c3ccc(C(=O)O)cc3)c(N)cc2N[C@@H](CC(C)C)C1=O | > 30 µM | 8% | –
5 | CC(C)=Cc1ccc2c(c1)CN(CCC(C)C)C(=O)[C@H](CC(C)C)N2 | – | inactive | –
6 | CCC/C=C/c1cc2c(cc1N)N[C@@H](CC(C)C)C(=O)N(CCC(C)C)C2 | – | – | Toxic
7 | CC(C)CCN1Cc2cc(/C=C/CO)ccc2N[C@@H](CC(C)C)C1=O | > 30 µM | 27% | –
8 | CC(C)CCN1Cc2cc(CCCO)ccc2N[C@@H](CC(C)C)C1=O | > 30 µM | 9% | –
9 | CC(C)CCN1Cc2cc(CC(C)C)ccc2N[C@@H](CC(C)C)C1=O | > 30 µM | 45% | –
10 | C=C(CC)c1ccc2c(c1)CN(CCC(C)C)C(=O)[C@H](CC(C)C)N2 | > 30 µM | 32% | –
11 | CC/C=C/c1ccc2c(c1)CN(CCC(C)C)C(=O)[C@H](CC(C)C)N2 | – | inactive | –

Continued, in another order:

Row | IC50 (Vitamin D3 receptor) | inhibition [1] | SMILES | Activity (HEK293)
12 | > 30 µM | 47% | CCCCCc1cc2c(cc1N)N[C@@H](CC(C)C)C(=O)N(CCC(C)C)C2 | –
13 | > 30 µM | 30% | CC(C)CCN1Cc2cc(I)ccc2N[C@@H](CC(C)C)C1=O | –
14 | 24 µM | – | CC(C)CCN1Cc2cc(-c3ccccc3)c(N)cc2N[C@@H](CC(C)C)C1=O | –
15 | 25 µM | – | CCCCc1cc2c(cc1N)N[C@@H](CC(C)C)C(=O)N(CCC(C)C)C2 | –
16 | > 30 µM | 48% | CC/C=C/c1cc2c(cc1N)N[C@@H](CC(C)C)C(=O)N(CCC(C)C)C2 | –
17 | > 30 µM | 28% | CC(C)CCN1Cc2cc(/C=C/CCO)ccc2N[C@@H](CC(C)C)C1=O | –
18 | > 30 µM | 29% | CC(C)CCN1Cc2ccccc2N[C@@H](CC(C)C)C1=O | –
19 | 14 µM | – | CCOC(=O)c1ccc(-c2cc3c(cc2N)N[C@@H](CC(C)C)C(=O)N(CCC(C)C)C3)cc1 | –
20 | 26 µM | – | CC(C)=Cc1cc2c(cc1N)N[C@@H](CC(C)C)C(=O)N(CCC(C)C)C2 | –
21 | 20 µM | – | CCOC(=O)c1ccc(-c2cc3c(cc2N)N[C@@H](CC(C)C)C(=O)N(CCC(C)C)C3)c(OCCO)c1 | –
